In experiment [1] the test system is inflammatory bowel disease (IBD) model mice. Nature of the experiment: Efficacy in DSS-induced inflammatory bowel disease (IBD) model mice. Type of experiment: in vivo, BALB/c mice. The protocol: Dextran sodium sulfate (DSS) (molecular weight 36,000 to 50,000, manufactured by MP Biomedicals, Product No. 160110) was dissolved in purified water to prepare a 2.5% (w/v) DSS aqueous solution. In addition, the peptide 1r10 (TFA salt) described in Example 1 was used as the test substance.
BALB/c mice (9 weeks old, male) were allowed to drink the 2.5% DSS aqueous solution freely for 7 days to induce colitis. After that, the drinking was changed from DSS to tap water, and the large intestine was collected 3 days later (10 days after the start of drinking the DSS aqueous solution).
The IBD model mice prepared as described above were divided into the peptide 1r10 administration group (n=8) and the control group (n=8). Peptide administration was carried out by injecting into the tail vein, the peptide 1r10 solution adjusted to a concentration of 0.5 mg/mL using physiological saline as a solvent at an amount of 10 mL/kg on Days 1, 4, 7, 8 and 9 after the start of drinking the DSS aqueous solution (peptide dose of 5 mg/kg). The control group was injected with physiological saline solution at a dose of 10 mL/kg into the tail vein on Days 1, 4, 7, 8 and 9 after the start of drinking the DSS aqueous solution.
For 10 days from the start of drinking the DSS aqueous solution, the mice were weighed and observed for the symptoms (stool condition and bleeding) every day except Saturdays, Sundays, and holidays, and the degree of symptoms was evaluated by calculating the DAI (disease activity index) score. The DAI score was calculated by scoring the weight loss rate, stool condition, and stool bleeding as shown in the table below, and summing the scores of these three items. The scoring criteria were partly based on the method of Li et al. (PLoS One. 2015 Dec. 7; 10 (12): e0144101).
In addition, the length of the large intestine (from the colon to the rectum) collected 10 days after the start of drinking DSS was measured using a digital caliper.

Experiment [2] concerns cerebral infarction model rat. The experiment can be described thus: Efficacy in cerebral infarction model rat (right MCA occlusion). Type of experiment: in vivo, Crl:CD (SD) rats. The settings on record: 2 mg/kg tail vein at 105 minutes and 24 hours after right MCA occlusion; 48 hours after occlusion; p<0.01 vs control 34.1±1.1%. The source says:
Crl:CD (SD) rats (7 weeks old, male) were obtained from Charles River Laboratories, Japan, and after 6 days of acclimation, they were divided into the control group (n=8) and the peptide-administered group (n=8). On the following day of grouping, the rats were fixed in the supine position under 2% isoflurane inhalation anesthesia (anesthesia background: laughing gas:oxygen=7:3). To regulate body temperature during surgery, a thermometer probe connected to a digital thermometer was inserted into the rectum, and changes in the rectal temperature before and after surgery were monitored. […]
Forty-eight hours after the right MCA occlusion, the animals were decapitated under anesthesia with sodium pentobarbital (50 mg/kg, intraperitoneal administration), and the entire brain was excised to prepare brain sections with a thickness of 2 mm. […] The resulting photographs were subjected to image analysis to obtain actual measurements of the cerebral infarction area and cross-sectional area of the brain, and the cerebral infarct volume and the total brain volume from 4 mm anterior to bregma to 6 mm posterior to bregma were calculated using the calculation formula below. In addition, the cerebral infarction volume ratio was calculated from the cerebral infarction volume and the total volume of the brain (cerebral infarction volume ratio (%)=cerebral infarction volume/total brain volume×100).

The mark [3] stands for this setting: 5 mg/kg tail vein, 8 to 10 days after the start of drinking DSS, vs control group.

On to “peptide 1r10: artificial sequence peptide consisting of the amino acid sequence of SEQ ID NO: 1, chemically synthesized (IMWLCQYFFQCHKCAVKKKTWKEKKDRRHP)”, for which, in experiment [1] (5 mg/kg tail vein on Days 1, 4, 7, 8 and 9, Day 10), the “body weight 10 days after the start of drinking the DSS aqueous solution” value is reported as “tendency to recover body weight”. Further, the “changes in mouse body weight (degree of decrease)” value in experiment [1] (5 mg/kg tail vein on Days 1, 4, 7, 8 and 9 after start of drinking DSS, vs control group (saline)) was “slower”. Further, in experiment [1] (setting [3]), the “DAI (disease activity index) score” value is “lower”; the “stool score (sum of stool condition score and bleeding score)” value is “lower”. Also, the colon length result in experiment [1] (5 mg/kg tail vein, ten days after the start of drinking DSS, vs control group) was “longer”. Further, in experiment [2], the “cerebral infarction volume ratio (mean±standard error)” value is reported as 27.2±1.2%.

(Values after patent publication US20220009976A1, “Peptide Possessing Mesenchymal-Stem-Cell Mobilizing Activity” (StemRIM Inc., priority 2018, published 2022).)
